Laboratory results published in US9247759B2, “Identification of human T2R receptors that respond to bitter compounds that elicit the bitter taste in compositions, and the use thereof in assays to identify compounds that inhibit (block) bitter taste in compositions and use thereof” (SENOMYX, INC., priority 2007, dated 2016).
Like-named read-outs stand apart in the source and are kept apart here.

Target: hT2R8 (Homo sapiens (Human), UniProt Q9NYW2)
Assay: hT2R8 antagonist high-throughput FLIPR assay, stable cell line with G16g44, agonist andrographolide
Type: cell-based
Source text: After a ligand is identified for a particular hT2R, a HEK293 cell line stably expressing both the hT2R and G16gust44 are generated, facilitating future screening assays to identify other ligands that activate the particular hT2R or which modulate (block or enhance) the activation of this hT2R by another bitter ligand such as a bitter compound contained in coffee. This avoids the need for transient transfection.
(§1) To identify antagonists, cell lines stably expressing hT2R8 and hT2R14, respectively, together with the promiscuous chimeric G16g44 protein were generated as described in previous patent applications. A high-throughput assay was established using the stable cell lines and FLIPR (Fluorescent Imaging Plate Reader). An agonist of hT2R8 or hT2R14 was used to activate the receptors up to 70-80% of their respective maximal activity. For hT2R8, the agonist used was andrographolide (200 λM); for hT2R14, it was aristolochic acid (3 μM). To identify antagonists, compounds with diverse chemical structures were added together with the agonist.
as §1, with “hT2R8” for “hT2R8 and hT2R14, respectively,”, “hT2R8” for “hT2R8 or hT2R14”, “(200” for “(200 λM); for hT2R14, it was aristolochic acid (3”

Sequence of hT2R8 (Q9NYW2 whole entry): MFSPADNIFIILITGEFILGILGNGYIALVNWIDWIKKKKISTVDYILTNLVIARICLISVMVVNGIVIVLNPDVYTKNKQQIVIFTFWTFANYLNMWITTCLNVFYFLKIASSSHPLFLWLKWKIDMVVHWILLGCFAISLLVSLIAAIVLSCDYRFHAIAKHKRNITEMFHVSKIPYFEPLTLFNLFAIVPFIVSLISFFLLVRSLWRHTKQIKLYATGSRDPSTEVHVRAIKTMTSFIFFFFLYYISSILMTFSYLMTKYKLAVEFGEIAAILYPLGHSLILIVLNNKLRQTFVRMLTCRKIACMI

Structure (SMILES)	IC50 (Table A, read-out: hT2R8 IC50)	IC50 (read-out: IC50 on hT2R8 bitter receptor)
Cc1noc(C)c1Cn1cc(NC(=O)CCCc2ccccc2)cn1 [Example 4-56, N-(1-((3,5-dimethylisoxazol-4-yl)methyl)-1H-pyrazol-4-yl)-4-phenylbutanamide]	830 nM	–
Cc1noc(C)c1Cn1cc(NC(=O)Cc2ccoc2)cn1 [Example 4-58, N-(1-((3,5-dimethylisoxazol-4-yl)methyl)-1H-pyrazol-4-yl)-2-(furan-3-yl)acetamide]	8660 nM	–
CCC(C)CC(=O)Nc1cnn(Cc2c(C)noc2C)c1 (stereo not shown) [Example 4-60, N-(1-((3,5-dimethylisoxazol-4-yl)methyl)-1H-pyrazol-4-yl)-3-methylpentanamide]	1940 nM	–
Cc1noc(C)c1Cn1cc(NC(=O)C2CCCCC2)cn1 [Example 4-61, N-(1-((3,5-dimethylisoxazol-4-yl)methyl)-1H-pyrazol-4-yl)cyclohexanecarboxamide]	2200 nM	–
CNc1cnn(Cc2c(C)noc2C)c1 [Example 4-63, 1-((3,5-dimethylisoxazol-4-yl)methyl)-N-methyl-1H-pyrazol-4-amine]	8760 nM	–
Cc1noc(C)c1Cn1cc(NC(=O)c2ccc3ocnc3c2)cn1 [Example 4-72, N-(1-((3,5-dimethylisoxazol-4-yl)methyl)-1H-pyrazol-4-yl)benzo[d]oxazole-5-carboxamide]	2600 nM	–
Cc1cc2cc(C(=O)Nc3cnn(Cc4c(C)noc4C)c3)ccc2o1 [Example 4-75, N-(1-((3,5-dimethylisoxazol-4-yl)methyl)-1H-pyrazol-4-yl)-2-methylbenzofuran-5-carboxamide]	2100 nM	–
Cc1noc(C)c1Cn1cc(NC(=O)c2cccc3nccnc23)cn1 [Example 4-76, N-(1-((3,5-dimethylisoxazol-4-yl)methyl)-1H-pyrazol-4-yl)quinoxaline-5-carboxamide]	1700 nM	–
Cc1noc(C)c1Cn1cc(NC(=O)c2ccc3occc3c2)cn1 [Example 4-77, N-(1-((3,5-dimethylisoxazol-4-yl)methyl)-1H-pyrazol-4-yl)benzofuran-5-carboxamide]	1400 nM	–
Cc1noc(C)c1Cn1cc(NC(=O)c2ccc3c(c2)OC(F)(F)O3)cn1 [Example 4-78, N-(1-((3,5-dimethylisoxazol-4-yl)methyl)-1H-pyrazol-4-yl)-2,2-difluorobenzo[d][1,3]dioxole-5-carboxamide]	1300 nM	–
Cc1nc2cc(C(=O)Nc3cnn(Cc4c(C)noc4C)c3)ccc2[nH]1 [Example 4-79, N-(1-((3,5-dimethylisoxazol-4-yl)methyl)-1H-pyrazol-4-yl)-2-methyl-1H-benzo[d]imidazole-5-carboxamide]	1000 nM	–
Cc1noc(C)c1Cn1cc(NC(=O)c2cccc(Cl)c2)cn1 [Example 4-80, 3-chloro-N-(1-((3,5-dimethylisoxazol-4-yl)methyl)-1H-pyrazol-4-yl)benzamide]	900 nM	–
CCc1nc2cc(C(=O)Nc3cnn(Cc4c(C)noc4C)c3)ccc2o1 [Example 4-81, N-(1-((3,5-dimethylisoxazol-4-yl)methyl)-1H-pyrazol-4-yl)-2-ethylbenzo[d]oxazole-5-carboxamide]	800 nM	–
Cc1noc(C)c1Cn1cc(NC(=O)c2ccc3nccnc3c2)cn1 [Example 4-82, N-(1-((3,5-dimethylisoxazol-4-yl)methyl)-1H-pyrazol-4-yl)quinoxaline-6-carboxamide]	800 nM	–
Cc1nc2ccc(C(=O)Nc3cnn(Cc4c(C)noc4C)c3)cc2o1 [Example 4-83, N-(1-((3,5-dimethylisoxazol-4-yl)methyl)-1H-pyrazol-4-yl)-2-methylbenzo[d]oxazole-6-carboxamide]	700 nM	–
Cc1noc(C)c1Cn1cc(NC(=O)c2ccc3[nH]nnc3c2)cn1 [Example 4-87, N-(1-((3,5-dimethylisoxazol-4-yl)methyl)-1H-pyrazol-4-yl)-1H-benzo[d][1,2,3]triazole-5-carboxamide]	600 nM	–
Cc1noc(C)c1Cn1cc(NC(=O)c2ccc3c(c2)OCCO3)cn1 [Example 4-88, N-(1-((3,5-dimethylisoxazol-4-yl)methyl)-1H-pyrazol-4-yl)-2,3-dihydrobenzo[b][1,4]dioxine-6-carboxamide]	400 nM	–
Cc1noc(C)c1Cn1cc(NC(=O)c2cc3c(cc2Br)OCCO3)cn1 [Example 4-89, 7-bromo-N-(1-((3,5-dimethylisoxazol-4-yl)methyl)-1H-pyrazol-4-yl)-2,3-dihydrobenzo[b][1,4]dioxine-6-carboxamide]	300 nM	–

Next, values leading:

IC50 (Table A, read-out: hT2R8 IC50)	IC50 (read-out: IC50 on hT2R8 bitter receptor)	Structure (SMILES)
490 nM	–	Cc1noc(C)c1Cn1cc(NC(=O)CCc2ccccc2)cn1 [Example 4-55, N-(1-((3,5-dimethylisoxazol-4-yl)methyl)-1H-pyrazol-4-yl)-3-phenylpropanamide]
220 nM	–	CCOc1cccc(C(=O)Nc2cnn(Cc3c(C)noc3C)c2)c1 [Example 4-59, N-(1-((3,5-dimethylisoxazol-4-yl)methyl)-1H-pyrazol-4-yl)-3-ethoxybenzamide]
12600 nM	–	COc1cccc(CN(Cc2cccc(OC)c2OC)c2cnn(Cc3c(C)noc3C)c2)c1OC [Example 4-64, N,N-bis(2,3-dimethoxybenzyl)-1-((3,5-dimethylisoxazol-4-yl)methyl)-1H-pyrazol-4-amine]
2810 nM	–	Cc1noc(C)c1Cn1cc(N(C)C(=O)C(C)c2ccccc2)cn1 (stereo not shown) [Example 4-65, N-(1-((3,5-dimethylisoxazol-4-yl)methyl)-1H-pyrazol-4-yl)-N-methyl-2-phenylpropanamide]
8230 nM	–	Cc1noc(C)c1Cn1cc(N(C)C(=O)C2(c3ccccc3)CC2)cn1 [Example 4-66, N-(1-((3,5-dimethylisoxazol-4-yl)methyl)-1H-pyrazol-4-yl)-N-methyl-1-phenylcyclopropanecarboxamide]
8600 nM	–	CO[C@H](C(=O)Nc1cnn(Cc2c(C)noc2C)c1)c1ccccc1 [Example 4-67, (S)-N-(1-((3,5-dimethylisoxazol-4-yl)methyl)-1H-pyrazol-4-yl)-2-methoxy-2-phenylacetamide]
5000 nM	–	CO[C@@H](C(=O)Nc1cnn(Cc2c(C)noc2C)c1)c1ccccc1 [Example 4-68, (R)-N-(1-((3,5-dimethylisoxazol-4-yl)methyl)-1H-pyrazol-4-yl)-2-methoxy-2-phenylacetamide]
4700 nM	–	COc1cc(CC(=O)Nc2cnn(Cc3c(C)noc3C)c2)ccc1O [Example 4-69, N-(1-((3,5-dimethylisoxazol-4-yl)methyl)-1H-pyrazol-4-yl)-2-(4-hydroxy-3-methoxyphenyl)acetamide]
3100 nM	–	COc1ccc(CC(=O)Nc2cnn(Cc3c(C)noc3C)c2)cc1O [Example 4-70, N-(1-((3,5-dimethylisoxazol-4-yl)methyl)-1H-pyrazol-4-yl)-2-(3-hydroxy-4-methoxyphenyl)acetamide]
2900 nM	–	COc1cccc(C(=O)Nc2cnn(Cc3c(C)noc3C)c2)c1O [Example 4-71, N-(1-((3,5-dimethylisoxazol-4-yl)methyl)-1H-pyrazol-4-yl)-2-hydroxy-3-methoxybenzamide]
2200 nM	2200 nM	COc1cc(C(=O)Nc2cnn(Cc3c(C)noc3C)c2)cc(O)c1O [Example 4-73, N-(1-((3,5-dimethylisoxazol-4-yl)methyl)-1H-pyrazol-4-yl)-3,4-dihydroxy-5-methoxybenzamide]
2200 nM	–	COc1cc(C(=O)Nc2cnn(Cc3c(C)noc3C)c2)ccc1C [Example 4-74, N-(1-((3,5-dimethylisoxazol-4-yl)methyl)-1H-pyrazol-4-yl)-3-methoxy-4-methylbenzamide]
